Laboratory results as given in PMC9182007, “Statistical Methods in the Study of Protein Binding and Its Relationship to Drug Bioavailability in Breast Milk” (Molecules, 2022).
Like-named read-outs stand apart in the source and are kept apart here.

Experiments:
[1] = source not stated, cited from earlier work
[2] = target: T1, bovine serum albumin (BSA) (Bos taurus, UniProt P02769); test: RP TLC on plates impregnated with bovine serum albumin; assay type: binding; details: for RP (Rf, BSA-impregnated RP plate): Table S4, RP plate impregnated with 2 mg/mL BSA, pH 7.4 mobile phase
T1 construct: purchased Sigma Aldrich
T1 sequence (P02769 25-607): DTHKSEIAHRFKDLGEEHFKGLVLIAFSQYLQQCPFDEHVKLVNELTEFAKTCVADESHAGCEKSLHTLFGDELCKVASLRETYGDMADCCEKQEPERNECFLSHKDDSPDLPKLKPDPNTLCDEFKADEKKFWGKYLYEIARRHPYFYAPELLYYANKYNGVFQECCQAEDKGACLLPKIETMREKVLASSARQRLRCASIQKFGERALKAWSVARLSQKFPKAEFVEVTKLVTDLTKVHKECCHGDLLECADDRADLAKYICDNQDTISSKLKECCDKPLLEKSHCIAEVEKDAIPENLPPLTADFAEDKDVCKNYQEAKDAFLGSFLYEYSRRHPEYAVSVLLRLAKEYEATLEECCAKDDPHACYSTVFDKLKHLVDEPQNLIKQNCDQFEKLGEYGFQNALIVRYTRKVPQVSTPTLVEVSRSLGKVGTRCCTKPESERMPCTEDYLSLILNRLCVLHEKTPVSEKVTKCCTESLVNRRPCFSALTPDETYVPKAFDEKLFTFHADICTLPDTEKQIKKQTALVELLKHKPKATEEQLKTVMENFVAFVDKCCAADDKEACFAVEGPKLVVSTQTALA
Text: Chromatographic descriptors were obtained in experiments, thin layer chromatography in normal (NP TLC) and reversed mode (RP TLC). The stationary phase was modified with bovine serum albumin (BSA). TLC was the source of retention factor (Rf) values, denoted in statistical models as NP and RP.
(§1) For TLC chromatography, glass plates 20 × 20 cm from Merck, covered with silica gel with the addition of a fluorescent indicator, were used. Normal phase (NP) plates were used with standard Merck TLC Silica gel 60 F254 plates, while in reverse phase (RP) silanized plates RP-2: Merck TLC Silica gel 60 RP-2 F254 were used.
The stationary phase of the plates, both NP and RP, was modified with an aqueous solution of bovine serum albumin purchased from Sigma Aldrich (bovine serum albumin, lyophilized powder).
The impregnation of the plates was carried out with a 2 mg/mL solution applied to the surface using a Desaga SG 1 hand sprayer; the plates were then air dried. […] Normal and reversed phase thin layer chromatography (NP TLC and RP TLC respectively) was performed using silica-gel-coated glass plates. Half of them were covered with 2 mg/mL bovine serum albumin solution and half remained pure.
(§2) The mobility of the compounds was also determined on the plates with no protein as a modifier. […] The acetate buffer (20 mM) was prepared by dissolving 1.54 g of ammonium acetate in 1 L of distilled water. The pH was then adjusted with a concentrated ammonia solution using a pH meter. The plates were developed in standard, vertical chromatographic chambers, each time using 100 mL of the mobile phase, after the chamber was previously saturated with solvent vapors for approximately 1 h.
(§3) The unfolded-protein-impregnated plates and the control plates were scanned with a Desaga CD 60 densitometer. The values of the delay factor (Rf) were collected, i.e., the ratio of the distance traveled by the substance to be analyzed to the distance traveled through the front of the mobile phase. […] The experiment was repeated (for both BSA-coated and control plates) and the Rf values pooled are the mean of both series of experiments.

[3] = ref DrugBank [7], cited from earlier work
[4] = RP TLC on non-impregnated control plates; assay type: physicochemical; details: for CRP (Rf, control RP plate): Table S4, non-impregnated RP plate, acetonitrile/acetate buffer pH 7.4/methanol 60:20:20
[5] = target: T2, human serum albumin (HSA) (Homo sapiens, UniProt P02768); test: in vitro; details: immobilized hsa column, pH 7.4
T2 sequence (P02768 25-609): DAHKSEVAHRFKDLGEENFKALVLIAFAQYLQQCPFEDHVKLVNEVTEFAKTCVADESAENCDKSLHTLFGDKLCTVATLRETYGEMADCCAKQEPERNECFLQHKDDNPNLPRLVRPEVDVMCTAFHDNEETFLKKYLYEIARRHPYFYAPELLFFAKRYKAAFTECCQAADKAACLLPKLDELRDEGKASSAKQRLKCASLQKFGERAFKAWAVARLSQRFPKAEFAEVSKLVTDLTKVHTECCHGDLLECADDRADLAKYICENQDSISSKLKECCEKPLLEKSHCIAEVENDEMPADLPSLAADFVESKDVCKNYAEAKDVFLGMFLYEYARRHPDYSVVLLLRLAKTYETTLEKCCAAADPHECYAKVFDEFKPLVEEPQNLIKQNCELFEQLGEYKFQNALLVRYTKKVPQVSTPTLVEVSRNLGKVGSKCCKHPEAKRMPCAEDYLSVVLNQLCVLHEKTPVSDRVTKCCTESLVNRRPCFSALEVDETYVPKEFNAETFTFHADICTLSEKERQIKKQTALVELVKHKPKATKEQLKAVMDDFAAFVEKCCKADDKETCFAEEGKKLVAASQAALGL
Experimental: (§4) High performance liquid chromatography was performed using immobilized human serum albumin column (HPLCHSA) and immobilized artificial membrane (HPLCIAM). HPLC was the source of the log k values (logarithm of retention factor), log kHSA and log kIAM.
(§5) High performance liquid chromatography was performed using a chromatography column with immobilized human serum albumin. The assay was performed on a Perkin Elmer Series 200 instrument connected to a UV-VIS spectrometer as detector. The analytical wavelength was the same for all compounds at 210 nm. […] The acetate buffer was prepared by dissolving 0.77 g of ammonium acetate in 1 L of distilled water. The pH was then adjusted with a concentrated ammonia solution using a pH meter.
(§6) The phase flow through the system was set to 0.9 mL/min as recommended by the column manufacturer. The solutions were delivered to the column using an autosampler syringe, the injection size was 10 µL. Since the column could not be thermostated, the room was kept at a constant temperature of 25 degrees Celsius.
(§7) Chromatographic data (retention coefficient, k, and derivative, log k) were obtained with TotalChrom software connected to an HPLC instrument. […] The experiment was then repeated and the collected retention rates were the mean values of both series.

plasma protein = details: ref DrugBank [7], cited from earlier work
[6] = target: T2, human serum albumin (HSA); details: for log k HSA: Table S5, HSA
Experimental: as §4, §5, §6, §7

[7] = NP TLC on non-impregnated control plates; assay type: physicochemical; details: for CNP (Rf, control NP plate): Table S3, non-impregnated NP plate, acetonitrile/acetate buffer pH 7.4/methanol 60:20:20
Experimental: as §1
Normal and reversed phase thin layer chromatography (NP TLC and RP TLC respectively) was performed using silica-gel-coated glass plates. Half of them were covered with 2 mg/mL bovine serum albumin solution and half remained pure.
as §2, §3

[8] = cited from earlier work
[9] = target: T1, bovine serum albumin (BSA); test: NP TLC on plates impregnated with bovine serum albumin; assay type: binding; details: for NP (Rf, BSA-impregnated NP plate): Table S3, NP plate impregnated with 2 mg/mL BSA, pH 7.4 mobile phase
[10] = HPLC on immobilized artificial membrane column (HPLCIAM); assay type: physicochemical; details: for log k IAM: Table S5, IAM column, pH 7.4; for k IAM: Table S5, retention factor, IAM column, phosphate buffer pH 7.4/acetonitrile 80:20
Experimental: as §4
The second experiment was performed using an immobilized artificial membrane (IAM) column. The assay was also performed on a Perkin Elmer Series 200 instrument connected to a UV-VIS spectrometer as the detector. The analytical wavelength was the same for all compounds, at 210 nm. […] The mobile phase was a mixture of 10 mM phosphate buffer pH 7.4 and acetonitrile in the ratio 80:20 (v/v). The phosphate buffer was obtained by dissolving the finished tablet in the appropriate amount of distilled water (1 tablet per 200 mL). In this case, it was not necessary to adjust the pH of the buffer using a pH meter.
The phase flow through the system was set to 0.5 mL/min as recommended by the column manufacturer. The solutions were delivered to the column using an autosampler syringe, the injection size was 10 µL.
The experiment was then repeated and the collected retention rates were the mean values of both series.

[11] = Milk-to-plasma (M/P) drug concentration ratio obtained in vivo, from literature; design: species or system human; details: Table S1, scale of drug penetration into milk 1-4
[12] = Table S1, plasma protein binding given as fraction
[13] = Table S5, retention factor, HSA column, pH 7.4, 25 degrees Celsius
[14] = Table S1, milk/plasma drug concentration ratio, in vivo

CN(C)CCC=C1c2ccccc2CCc2ccccc21 [amitriptyline]
BB vivo ([1]; Table S6, external group): 0.89 | RP (Rf value from the RP plate impregnated with 2 mg/mL BSA solution) ([2]; Table S8, external group): 0.63 | CNS+/- ([3]; Table S6, external group, coded 1/0): 1 | CRP (Rf value from the non-impregnated RP plate, control) ([4]; Table S8, external group): 0.67 | chromatographic logD [5]: 0.77 | PB (plasma protein; Table S6, external group (n = 38), given as fraction): 0.95 | kHSA ([6]; Table S9, external group): 5.87 | CNP (Rf value from the non-impregnated NP plate, control) ([7]; Table S8, external group): 0.32 | M/P ([8]; Table S6, external group (n = 38)): 0.92 | NP (Rf value from the NP plate impregnated with 2 mg/mL BSA solution) ([9]; Table S8, external group): 0.31 | log kIAM ([10]; Table S9, external group): 0.19

NC(=O)N1c2ccccc2C=Cc2ccccc21 [carbamazepine]
BB vivo ([1]; Table S1): -0.070 | RP (Rf, BSA-impregnated RP plate) [2]: 0.84 | CNS+/- ([3]; Table S1, coded 1/0): 1 | CRP (Rf, control RP plate) [4]: 0.83 | PB (plasma protein; [12]): 0.76 | log k HSA ([6]; pH 7.4): 0.04 | k HSA [6, 13]: 1.09 | CNP (Rf, control NP plate) [7]: 0.95 | M/P [8, 14]: 0.558 | NP (Rf, BSA-impregnated NP plate) [9]: 0.95 | log k IAM [10]: 0.18 | k IAM [10]: 1.50 | M/P code [11]: 2 (2 corresponds to the range of 0.40–0.80—at the safety limit)

CN/C(=N/CCSCc1nc[nH]c1C)NC#N [cimetidine]
BB vivo ([1]; Table S1): -1.420 | RP (Rf, BSA-impregnated RP plate) [2]: 0.87 | CNS+/- ([3]; Table S1, coded 1/0): 0 | CRP (Rf, control RP plate) [4]: 0.88 | chromatographic logD [5]: -0.17 | PB (plasma protein; [12]): 0.17 | k HSA [6, 13]: 0.67 | CNP (Rf, control NP plate) [7]: 0.64 | M/P [8, 14]: 1.7 | NP (Rf, BSA-impregnated NP plate) [9]: 0.67 | log k IAM [10]: -0.58 | k IAM [10]: 0.26 | M/P code [11]: 4 (4 is M/P >1.20—dangerous)

CN1C(=O)CC(=O)N(c2ccccc2)c2cc(Cl)ccc21 [clobazam]
BB vivo ([1]; Table S1): 0.350 | RP (Rf, BSA-impregnated RP plate) [2]: 0.80 | CNS+/- ([3]; Table S1, coded 1/0): 1 | CRP (Rf, control RP plate) [4]: 0.79 | chromatographic logD [5]: 0 | PB (plasma protein; [12]): 0.85 | k HSA ([6]; pH 7.4): 1.01 | CNP (Rf, control NP plate) [7]: 0.95 | M/P [8, 14]: 0.25 | NP (Rf, BSA-impregnated NP plate) [9]: 0.95 | log k IAM [10]: 0.41 | k IAM [10]: 2.58 | M/P code [11]: 1 (Code 1 corresponds to drugs with an M/P value <0.40—completely safe)

Clc1cccc(Cl)c1N=C1NCCN1 [clonidine]
BB vivo ([1]; Table S1): 0.150 | RP (Rf, BSA-impregnated RP plate) [2]: 0.68 | CNS+/- ([3]; Table S1, coded 1/0): 1 | CRP (Rf, control RP plate) [4]: 0.73 | chromatographic logD [5]: 0.13 | PB (plasma protein; [12]): 0.3 | k HSA [6, 13]: 1.35 | CNP (Rf, control NP plate) [7]: 0.49 | M/P [8, 14]: 2 | NP (Rf, BSA-impregnated NP plate) [9]: 0.50 | log k IAM [10]: 0.45 | k IAM [10]: 2.83 | M/P code [11]: 4 (4 is M/P >1.20—dangerous)

CN1CCN2c3ccccc3Cc3ccccc3C2C1 (stereo not shown) [mianserin]
BB vivo ([1]; Table S1): 0.990 | RP (Rf, BSA-impregnated RP plate) [2]: 0.55 | CNS+/- ([3]; Table S1, coded 1/0): 1 | CRP (Rf, control RP plate) [4]: 0.55 | chromatographic logD [5]: 0.81 | PB (plasma protein; [12]): 0.9 | k HSA [6, 13]: 6.39 | CNP (Rf, control NP plate) [7]: 0.54 | M/P [8, 14]: 2.2 | NP (Rf, BSA-impregnated NP plate) [9]: 0.55 | log k IAM [10]: 1.34 | k IAM [10]: 21.72 | M/P code [11]: 4 (4 is M/P >1.20—dangerous)

Cc1ncc2n1-c1ccc(Cl)cc1C(c1ccccc1F)=NC2 [midazolam]
BB vivo ([1]; Table S1): 0.398 | RP (Rf, BSA-impregnated RP plate) [2]: 0.66 | CNS+/- ([3]; Table S1, coded 1/0): 1 | CRP (Rf, control RP plate) [4]: 0.66 | chromatographic logD [5]: 0.51 | PB (plasma protein; [12]): 0.97 | k HSA ([6]; pH 7.4): 3.22 | CNP (Rf, control NP plate) [7]: 0.82 | M/P [8, 14]: 0.785 | NP (Rf, BSA-impregnated NP plate) [9]: 0.83 | log k IAM [10]: 0.76 | k IAM [10]: 5.69 | M/P code [11]: 2 (2 corresponds to the range of 0.40–0.80—at the safety limit)

CN1CCN2c3ncccc3Cc3ccccc3C2C1 (stereo not shown) [mirtazapine]
BB vivo ([1]; Table S1): 0.530 | RP (Rf, BSA-impregnated RP plate) [2]: 0.58 | CNS+/- ([3]; Table S1, coded 1/0): 1 | CRP (Rf, control RP plate) [4]: 0.58 | chromatographic logD [5]: 0.47 | k HSA [6, 13]: 2.96 | CNP (Rf, control NP plate) [7]: 0.39 | M/P [8, 14]: 1.1 | NP (Rf, BSA-impregnated NP plate) [9]: 0.39 | log k IAM [10]: 0.77 | k IAM [10]: 5.83 | M/P code [11]: 3 (3 range 0.81–1.20—possibly over the safety limit)

CC(=O)Nc1ccc(O)cc1 [paracetamol]
BB vivo ([1]; Table S1): -0.463 | RP (Rf, BSA-impregnated RP plate) [2]: 0.92 | CNS+/- ([3]; Table S1, coded 1/0): 1 | CRP (Rf, control RP plate) [4]: 0.92 | PB (plasma protein; [12]): 0.25 | log k HSA ([6]; pH 7.4): -0.55 | k HSA [6, 13]: 0.28 | CNP (Rf, control NP plate) [7]: 0.93 | M/P [8, 14]: 0.84 | NP (Rf, BSA-impregnated NP plate) [9]: 0.94 | log k IAM [10]: -0.49 | k IAM [10]: 0.32 | M/P code [11]: 3 (3 range 0.81–1.20—possibly over the safety limit)

O=C1NC(=O)C(c2ccccc2)(c2ccccc2)N1 [phenytoin]
BB vivo ([1]; Table S1): -0.096 | RP (Rf, BSA-impregnated RP plate) [2]: 0.86 | CNS+/- ([3]; Table S1, coded 1/0): 1 | CRP (Rf, control RP plate) [4]: 0.87 | chromatographic logD [5]: 0.21 | PB (plasma protein; [12]): 0.9 | k HSA [6, 13]: 1.63 | CNP (Rf, control NP plate) [7]: 0.97 | M/P [8, 14]: 0.29 | NP (Rf, BSA-impregnated NP plate) [9]: 0.97 | log k IAM [10]: 0.25 | k IAM [10]: 1.78 | M/P code [11]: 1 (Code 1 corresponds to drugs with an M/P value <0.40—completely safe)
